From PubChem BioAssay (NCI)
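How tested: cells in 96-well plates exposed to compound for 48 hours at five concentrations. The concentration for full growth arrest is given as TGI.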

What was measured:
Test in all cases: DTP human tumour cell line panel, 48 h
[1] = system: NCI-H460 lung
[2] = system: UACC-62 melanoma
[3] = system: HCT-15 colon
[4] = system: SN12C renal
[5] = system: HCT-116 colon
[6] = system: SK-MEL-5 melanoma
[7] = system: CAKI-1 renal
[8] = system: MDA-N
[9] = system: HS 578T breast
[10] = system: OVCAR-3 ovarian
[11] = system: SK-OV-3 ovarian
[12] = system: MCF7 breast
[13] = system: K-562 leukemia
[14] = system: SK-MEL-2 melanoma
[15] = system: OVCAR-8 ovarian
[16] = system: SW-620 colon
[17] = system: ACHN renal
[18] = system: HOP-62 NSCLC
[19] = system: A498 renal
[20] = system: NCI-H23 lung
[21] = system: HT29 colon
[22] = system: SF-539 CNS
[23] = system: COLO 205 colon
[24] = system: DU-145 prostate
[25] = system: BT-549 breast
[26] = system: SR leukemia
[27] = system: U251 CNS
[28] = system: T-47D breast
[29] = system: SF-295 CNS
[30] = system: NCI-H522 lung
[31] = system: CCRF-CEM leukemia
[32] = system: IGROV1 ovarian
[33] = system: MALME-3M melanoma
[34] = system: HL-60(TB) leukemia
[35] = system: MDA-MB-435
[36] = system: SK-MEL-28 melanoma
[37] = system: RPMI-8226 leukemia
[38] = system: NCI/ADR-RES ovarian
[39] = system: HCC-2998 colon
[40] = system: EKVX NSCLC
[41] = system: OVCAR-4 ovarian
[42] = system: LOX IMVI melanoma
[43] = system: 786-0 renal
[44] = system: MOLT-4 leukemia
[45] = system: UACC-257 melanoma
[46] = system: SF-268 CNS
[47] = system: KM12 colon
[48] = system: PC-3 prostate
[49] = system: OVCAR-5 ovarian
[50] = system: SNB-75 CNS
[51] = system: HOP-92 NSCLC
[52] = system: A549 NSCLC
[53] = system: SNB-19 CNS
[54] = system: NCI-H226 lung
[55] = system: M14 melanoma
[56] = system: TK-10 renal
[57] = system: RXF 393 renal
[58] = system: UO-31 renal

Measured: TGI

O=C(Nc1ccc(F)cc1)c1cc2ccc(O)cc2oc1=Nc1ccccc1F
49.6 µM: [42]
36.1 µM: [32]
59 µM: [3]
51.8 µM: [38]
36.7 µM: [15]
69.5 µM: [34]
35.2 µM: [6]
67.1 µM: [11]
97.5 µM: [27]
43.5 µM: [25]
13.6 µM: [20]
84 µM: [30]
40.8 µM: [40]
not listed: [50] | [51] | [52] | [53] | [54] | [55] | [56] | [57] | [58]
> 100 µM: all other assays above

CCOC(=O)[C@H]1C[C@]23CN(C(=O)OC(C)(C)C)CC[C@H]2CCC2(SCCCS2)[C@@H]3N1C
89.9 µM: [48]
37.4 µM: [6]
54.4 µM: [37]
65.4 µM: [39]
74.2 µM: [41]
51 µM: [51]
81.2 µM: [56]
74.6 µM: [33]
77.5 µM: [45]
90.4 µM: [40]
47.3 µM: [34]
63.3 µM: [14]
44.3 µM: [4]
76.5 µM: [26]
53.3 µM: [21]
99.7 µM: [57]
> 100 µM: all other assays above
